Patent publication US7825112B2, “2-carbamide-4-phenylthiazole derivatives, preparation thereof and therapeutic use thereof” (sanofi-aventis, priority 2006, dated 2010)

How the values were obtained:
human CCR2b receptor = target: T1, human CCR2b receptor (Homo sapiens, UniProt P41597); test: [125I]-MCP-1 binding displacement on CHO-K1-CCR2B cells (inhibiting activity on cells expressing the human CCR2b receptor); settings: iodinated MCP-1 0.1 nM, 1 h 30 minutes at ambient temperature, read-out: Cl50 (concentration which inhibited 50% of the activity of the CCR2b receptor)
T1 construct: host or cells: CHO-K1
T1 sequence (P41597 1-360 isoform P41597-2): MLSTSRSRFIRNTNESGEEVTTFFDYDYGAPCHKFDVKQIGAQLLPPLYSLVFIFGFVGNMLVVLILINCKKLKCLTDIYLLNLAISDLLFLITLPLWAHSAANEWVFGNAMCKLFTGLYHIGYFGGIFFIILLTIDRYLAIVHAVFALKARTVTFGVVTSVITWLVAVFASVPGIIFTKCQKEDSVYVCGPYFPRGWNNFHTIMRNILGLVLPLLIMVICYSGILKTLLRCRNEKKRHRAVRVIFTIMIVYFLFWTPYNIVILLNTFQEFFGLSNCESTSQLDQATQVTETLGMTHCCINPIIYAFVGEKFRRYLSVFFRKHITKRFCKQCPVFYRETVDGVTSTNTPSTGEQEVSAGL
Method: The inhibiting activity of the compounds according to the invention was measured on cells expressing the human CCR2b receptor. The concentration of natural hMCP-1 agonist which inhibited 50% (Cl50) of the activity of the CCR2b receptor was 0.57 nM.
The following are brought into contact for 1 h 30 minutes at ambient temperature, in Millipore GF/B filter plates (ref. MAFBNOB 10 or 50): 50 μl of compound at 3×10^−5 M in the reaction buffer or cold MCP-1 range ((R & D Systems). Recombinant human MCP-1) (final concentration of compound: 10^−5 M), and 50 μl of iodinated MCP-1 ([^125 l]-MCP-1 human recombinant Bolton+Hunter labelled (Amersham)) at 0.3 nM in distilled water (final concentration of iodinated MCP-1: 0.1 nM), and 50 μl of CHO-K1-CCR2B cells (obtained from Euroscreen Brussels, Belgium) at 6×10^5 cells/ml (final concentration in the reaction buffer: […]). The filters were saturated beforehand with 100 μl of PEI at a final concentration of 0.0125% in PBS, for 72 h at 4° C., and the PEI was removed by filtration. The content of the wells was filtered and washed twice with the reaction buffer, and the filters were left to dry overnight. The following day, 20 μl/well of “Wallac Optiphase Super Mix” scintillant were dispensed. The filters were impregnated for 1 to 2 h and then counted with Trilux Iodine 125 for 1 min.
Reaction buffer=PBS buffer, […], 1 mM CaCl2, 5 mM MgCl2, 0.5% fatty acid-free BSA, adjusted to pH 7.4.

| Compound | IC50 (human CCR2b receptor) [nM] | melting point [°C] |
| --- | --- | --- |
| COc1ccc(C2CCCCC2)cc1-c1csc(NC(=O)N2CCN(C(=O)[C@@H]3CCCN(C4CC4)C3)CC2)n1 [compound 22, 4-((R)-1-cyclopropylpiperidine-3-carbonyl)piperazine-1-carboxylic acid [4-(5-cyclohexyl-2-methoxyphenyl)thiazol-2-yl]amide] | 4 | – |
| COc1ccc(C2CCCCC2)cc1-c1csc(NC(=O)N2CCN(C[C@@H]3CCCN(S(=O)(=O)C4CC4)C3)CC2)n1 [compound 29, 4-((S)-1-cyclopropanesulphonylpiperidin-3-ylmethyl)piperazine-1-carboxylic acid [4-(5-cyclohexyl-2-methoxyphenyl)thiazol-2-yl]amide] | 50 | 114 |
| COc1ccc(C2CCCCC2)cc1-c1csc(NC(=O)N2CCN(C3CCSCC3)CC2)n1 [compound 41, 4-(tetrahydrothiopyran-4-yl)piperazine-1-carboxylic acid [4-(5-cyclohexyl-2-methoxyphenyl)thiazol-2-yl]amide] | 39 | 118 |
| COc1ccc(C2CCCCC2)cc1-c1csc(NC(=O)N2CCN(CC3CCCCN3S(=O)(=O)c3cnn(C)c3C)CC2)n1 (stereo not shown) [compound 45, 4-[1-(1,5-dimethyl-1H-pyrazole-4-sulphonyl)piperidin-2-ylmethyl]piperazine-1-carboxylic acid [4-(5-cyclohexyl-2-methoxyphenyl)thiazol-2-yl]amide] | 73 | – |
| COc1ccc(C2CCCCC2)cc1-c1csc(NC(=O)N2CCN(C[C@@H]3CCCN(CCCCC(=O)O)C3)CC2)n1 [compound 9, 5-((R)-3-{4-[4-(5-cyclohexyl-2-methoxyphenyl)thiazol-2-ylcarbamoyl]piperazin-1-ylmethyl}piperidin-1-yl)pentanoic acid] | 4 | 153 |
| hMCP-1: human monocyte chemotactic protein, CC chemokine group, natural agonist of the CCR2b receptor [reference compound] | 0.57 | – |
| COc1ccc(C2CCCCC2)cc1-c1csc(NC(=O)N2CCN(C3CCCCC3)CC2)n1 [compound 10, 4-cyclohexylpiperazine-1-carboxylic acid [4-(5-cyclohexyl-2-methoxyphenyl)thiazol-2-yl]amide] | 53 | 110 |

Now from value to compound:

| IC50 (human CCR2b receptor) [nM] | melting point [°C] | Compound |
| --- | --- | --- |
| 82 | 98 | COc1ccc(C2CCCCC2)cc1-c1csc(NC(=O)N2CCN(CC3CCOC(C)(C)C3)CC2)n1 (stereo not shown) [compound 40, 4-(2,2-dimethyltetrahydropyran-4-ylmethyl)piperazine-1-carboxylic acid [4-(5-cyclohexyl-2-methoxyphenyl)thiazol-2-yl]amide] |
| 20 | 226 | COc1ccc(C2CCCCC2)cc1-c1csc(NC(=O)N2CCN(C3CCOCC3)CC2)n1 [Compound No 11, 4-(tetrahydropyran-4-yl)piperazine-1-carboxylic acid [4-(5-cyclohexyl-2-methoxyphenyl)thiazol-2-yl]amide] |
| 20 | 204 | COc1ccc(C2CCCCC2)cc1-c1csc(NC(=O)N2CCN(C3CCS(=O)(=O)CC3)CC2)n1 [compound 33, 4-(1,1-dioxohexahydro-1λ^6-thiopyran-4-yl)piperazine-1-carboxylic acid [4-(5-cyclohexyl-2-methoxyphenyl)thiazol-2-yl]amide] |
| 8 | 86 | CCCCc1ccc(OCC)c(-c2csc(NC(=O)N3CCN(C[C@@H]4CCCN(C5CC5)C4)CC3)n2)c1 [compound 23, 4-((S)-1-cyclopropylpiperidin-3-ylmethyl)piperazine-1-carboxylic acid [4-(5-butyl-2-ethoxyphenyl)thiazol-2-yl]amide] |
